# Reference: patent US11180484B2, “Pyrazole derivatives as plasma kallikrein inhibitors” (KALVISTA PHARMACEUTICALS LIMITED, priority 2016, dated 2021)
# Key:
# Assay type in all cases: biochemical
# Human plasma kallikrein = Human plasma kallikrein (Homo sapiens (Human), UniProt P03952); assay: Determination of the IC50 for plasma kallikrein; conditions: 25° C., substrate H-DPro-Phe-Arg-AFC; read-out: IC50 (human PKal)
# Procedure: (§1) Human plasma kallikrein (Protogen) was incubated at 25° C. with the fluorogenic substrate H-DPro-Phe-Arg-AFC and various concentrations of the test compound. Residual enzyme activity (initial rate of reaction) was determined by measuring the change in […] at 410 nm and the IC50 value for the test compound was determined.
# Human KLK1 = Human KLK1 (Homo sapiens (Human), UniProt P06870); assay: Determination of the IC50 for KLK1; conditions: 25° C., substrate H-DVal-Leu-Arg-AFC
# Procedure: as §1, with “KLK1 (Callbiochem)” for “plasma kallikrein (Protogen)”, “H-DVal-Leu-Arg-AFC” for “H-DPro-Phe-Arg-AFC”
# Human FXIa = Human FXIa (Homo sapiens (Human), UniProt P03951); assay: Determination of the % inhibition / IC50 for FXIa; conditions: for IC50: 25° C., substrate Z-Gly-Pro-Arg-AFC
# Procedure: FXIa inhibitory activity in vitro was determined using standard published methods (see e.g. Johansen et al., Int. J. Tiss. Reac. 1986, 8, 185; Shori et al., Biochem. Pharmacol., 1992, 43, 1209; Sturzebecher et al., Biol. Chem. Hoppe-Seyler, 1992, 373, 1025). […]
# Human Factor XIIa = Human Factor XIIa (Homo sapiens (Human), UniProt P00748); assay: Factor XIIa inhibitory activity in vitro; conditions: 25° C., substrate H-DPro-Phe-Arg-AFC; read-out: IC50 (human FXIIa)
# Procedure: as §1, with “Factor XIIa (Enzyme Research Laboratories)” for “plasma kallikrein (Protogen)”
# Sequence of Human plasma kallikrein (P03952 391-638): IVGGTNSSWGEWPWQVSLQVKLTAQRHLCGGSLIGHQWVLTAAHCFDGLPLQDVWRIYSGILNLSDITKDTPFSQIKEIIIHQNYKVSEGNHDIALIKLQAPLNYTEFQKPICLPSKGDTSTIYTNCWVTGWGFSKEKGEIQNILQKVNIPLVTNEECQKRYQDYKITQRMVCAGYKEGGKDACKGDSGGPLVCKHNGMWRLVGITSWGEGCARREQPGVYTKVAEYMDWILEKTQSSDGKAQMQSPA
# Sequence of Human plasma kallikrein (P03952 20-390): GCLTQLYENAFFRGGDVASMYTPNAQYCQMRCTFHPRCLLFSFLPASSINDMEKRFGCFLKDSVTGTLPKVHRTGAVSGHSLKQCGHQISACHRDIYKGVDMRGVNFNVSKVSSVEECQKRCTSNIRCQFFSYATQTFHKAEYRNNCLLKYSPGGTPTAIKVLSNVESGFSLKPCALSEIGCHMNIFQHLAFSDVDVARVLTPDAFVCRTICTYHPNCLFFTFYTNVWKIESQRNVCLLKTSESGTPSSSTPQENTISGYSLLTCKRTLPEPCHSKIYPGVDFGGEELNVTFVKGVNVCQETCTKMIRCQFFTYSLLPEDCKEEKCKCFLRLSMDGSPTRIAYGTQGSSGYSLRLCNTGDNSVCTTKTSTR
# Sequence of Human KLK1 (P06870 25-262): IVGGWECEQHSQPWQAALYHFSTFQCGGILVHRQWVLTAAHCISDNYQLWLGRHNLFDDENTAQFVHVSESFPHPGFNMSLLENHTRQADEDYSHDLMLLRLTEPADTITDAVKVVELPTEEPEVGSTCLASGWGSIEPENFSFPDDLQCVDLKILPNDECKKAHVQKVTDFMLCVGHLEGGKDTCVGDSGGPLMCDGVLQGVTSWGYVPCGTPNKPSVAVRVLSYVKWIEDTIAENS
# Sequence of Human FXIa (P03951 388-625): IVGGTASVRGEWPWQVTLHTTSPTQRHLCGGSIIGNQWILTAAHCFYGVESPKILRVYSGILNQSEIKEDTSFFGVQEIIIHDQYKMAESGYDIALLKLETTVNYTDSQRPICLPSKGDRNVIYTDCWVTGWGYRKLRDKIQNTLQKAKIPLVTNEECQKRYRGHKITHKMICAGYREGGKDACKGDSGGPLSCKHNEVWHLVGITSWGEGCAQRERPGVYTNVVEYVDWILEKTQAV
# Sequence of Human FXIa (P03951 19-387): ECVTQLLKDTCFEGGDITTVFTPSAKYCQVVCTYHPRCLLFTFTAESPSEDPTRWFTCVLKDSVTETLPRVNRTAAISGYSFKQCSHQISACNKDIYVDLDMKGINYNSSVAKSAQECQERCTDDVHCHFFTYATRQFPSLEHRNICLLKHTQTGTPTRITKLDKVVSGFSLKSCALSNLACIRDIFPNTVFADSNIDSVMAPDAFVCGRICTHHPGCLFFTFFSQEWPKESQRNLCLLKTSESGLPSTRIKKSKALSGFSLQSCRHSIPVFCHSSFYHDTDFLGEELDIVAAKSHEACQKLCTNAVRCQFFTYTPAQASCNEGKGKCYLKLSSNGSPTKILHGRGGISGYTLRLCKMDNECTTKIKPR
# Sequence of Human Factor XIIa (P00748 373-615): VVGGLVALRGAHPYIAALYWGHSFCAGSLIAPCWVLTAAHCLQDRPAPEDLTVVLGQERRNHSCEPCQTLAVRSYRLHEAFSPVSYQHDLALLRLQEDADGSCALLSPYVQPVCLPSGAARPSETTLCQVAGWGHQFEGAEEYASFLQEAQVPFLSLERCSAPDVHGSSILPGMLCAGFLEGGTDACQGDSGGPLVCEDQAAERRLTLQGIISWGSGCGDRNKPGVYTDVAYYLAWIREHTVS
structure (smiles),measurement,setting,value
"COCc1nn(Cc2ccc(Cn3ccccc3=O)cc2)cc1C(=O)NCc1cccc(OC)c1C#N [Example 38, N-[(2-cyano-3-methoxyphenyl)methyl]-3-(methoxymethyl)-1-({4-[(2-oxopyridin-1-yl)methyl]phenyl}methyl)pyrazole-4-carboxamide]",IC50,Human plasma kallikrein,0.301 µM
same,IC50,Human KLK1,> 4 µM
same,IC50,Human FXIa,> 40 µM
same,IC50,Human Factor XIIa,> 4 µM
"COCc1nn(Cc2ccc(Cn3ccccc3=O)cc2)cc1C(=O)NCc1c(C#N)ccc(OC)c1F [Reference Example E, 3-Methoxymethyl-1-[4-(2-oxo-2H-pyridin-1-ylmethyl)-benzyl]-1H-pyrazole-4-carboxylic acid 6-cyano-2-fluoro-3-methoxy-benzylamide, reference compound]",IC50,Human FXIa,> 40 µM
same,IC50,Human Factor XIIa,> 40 µM
"COCc1nn(Cc2ccc(Cn3ccccc3=O)cc2)cc1C(=O)NCc1nn(C)cc1Cl [Example 34, N-[(4-chloro-1-methylpyrazol-3-yl)methyl]-3-(methoxymethyl)-1-({4-[(2-oxopyridin-1-yl)methyl]phenyl}methyl)pyrazole-4-carboxamide]",IC50,Human plasma kallikrein,0.709 µM
same,IC50,Human KLK1,> 40 µM
same,IC50,Human FXIa,> 40 µM
"COCc1nn(Cc2ccc(Cn3ccccc3=O)cc2)cc1C(=O)NCc1nc(C)ccc1F [Example 27, N-[(3-fluoro-6-methylpyridin-2-yl)methyl]-3-(methoxymethyl)-1-({4-[(2-oxopyridin-1-yl)methyl]phenyl}methyl)pyrazole-4-carboxamide]",IC50,Human plasma kallikrein,0.775 µM
same,IC50,Human KLK1,> 40 µM
same,IC50,Human FXIa,> 40 µM
same,IC50,Human Factor XIIa,> 40 µM
"COCc1nn(Cc2ccc(Cn3ccccc3=O)cc2)cc1C(=O)NCc1ncc(F)cc1F [Example 26, N-[(3,5-difluoropyridin-2-yl)methyl]-3-(methoxymethyl)-1-({4-[(2-oxopyridin-1-yl)methyl]phenyl}methyl)pyrazole-4-carboxamide]",IC50,Human plasma kallikrein,1.76 µM
same,IC50,Human KLK1,> 40 µM
same,IC50,Human FXIa,> 40 µM
same,IC50,Human Factor XIIa,> 40 µM
"COCc1nn(Cc2ccc(Cn3ccccc3=O)cc2)cc1C(=O)NCc1cc(OC)ccc1C [Example 41, N-[(5-methoxy-2-methylphenyl)methyl]-3-(methoxymethyl)-1-({4-[(2-oxopyridin-1-yl)methyl]phenyl}methyl)pyrazole-4-carboxamide]",IC50,Human plasma kallikrein,0.149 µM
same,IC50,Human KLK1,> 4 µM
same,IC50,Human FXIa,> 40 µM
same,IC50,Human Factor XIIa,> 4 µM
"COCc1nn(Cc2ccc(Cn3ccccc3=O)cc2)cc1C(=O)NCc1nccc(C)c1F [Example 28, N-[(3-fluoro-4-methylpyridin-2-yl)methyl]-3-(methoxymethyl)-1-({4-[(2-oxopyridin-1-yl)methyl]phenyl}methyl)pyrazole-4-carboxamide]",IC50,Human plasma kallikrein,0.163 µM
same,IC50,Human KLK1,> 40 µM
same,IC50,Human FXIa,> 40 µM
same,IC50,Human Factor XIIa,> 40 µM
"COCc1nn(Cc2ccc(Cn3ccccc3=O)cc2)cc1C(=O)NCc1ncc(Cl)cc1F [Example 17, N-[(5-chloro-3-fluoropyridin-2-yl)methyl]-3-(methoxymethyl)-1-({4-[(2-oxopyridin-1-yl)methyl]phenyl}methyl)pyrazole-4-carboxamide]",IC50,Human plasma kallikrein,0.143 µM
same,IC50,Human KLK1,> 40 µM
same,IC50,Human FXIa,> 40 µM
same,IC50,Human Factor XIIa,> 40 µM
"COCc1nn(Cc2ccc(Cn3ccccc3=O)cc2)cc1C(=O)NCc1nccc(C)c1Cl [Example 29, N-[(3-chloro-4-methylpyridin-2-yl)methyl]-3-(methoxymethyl)-1-({4-[(2-oxopyridin-1-yl)methyl]phenyl}methyl)pyrazole-4-carboxamide]",IC50,Human plasma kallikrein,0.217 µM
same,IC50,Human KLK1,> 40 µM
same,IC50,Human FXIa,> 40 µM
same,IC50,Human Factor XIIa,> 40 µM
"COCc1nn(Cc2ccc(Cn3ccccc3=O)cc2)cc1C(=O)NCc1cc(OC)c(C)cn1 [Example 20, N-[(4-methoxy-5-methylpyridin-2-yl)methyl]-3-(methoxymethyl)-1-({4-[(2-oxopyridin-1-yl)methyl]phenyl}methyl)pyrazole-4-carboxamide]",IC50,Human plasma kallikrein,3.22 µM
same,IC50,Human KLK1,> 40 µM
same,inhibition at 40 µM,"Human FXIa; 40 μM test compound, read-out: % Inhibition @ 40 μM (human FXIa)",0%
same,IC50,Human FXIa,> 40 µM
same,IC50,Human Factor XIIa,> 40 µM
"COCc1nn(Cc2ccc(CN3CCCCC3=O)cc2)cc1C(=O)NCc1c(C#N)ccc(OC)c1F [Example 57, N-[(6-cyano-2-fluoro-3-methoxyphenyl)methyl]-3-(methoxymethyl)-1-({4-[(2-oxopiperidin-1-yl)methyl]phenyl}methyl)pyrazole-4-carboxamide]",IC50,Human plasma kallikrein,0.0279 µM
same,IC50,Human KLK1,> 40 µM
same,IC50,Human FXIa,> 40 µM
same,IC50,Human Factor XIIa,> 40 µM
"COCc1nn(Cc2ccc(Cn3ccccc3=O)cc2)cc1C(=O)NCc1c(F)ccc(OC)c1C(F)F [Reference Example F, 3-Methoxymethyl-1-[4-(2-oxo-2H-pyridin-1-ylmethyl)-benzyl]-1H-pyrazole-4-carboxylic acid 2-difluoromethyl-6-fluoro-3-methoxy-benzylamide, reference compound]",IC50,Human FXIa,> 40 µM
"COCc1nn(Cc2ccc(Cn3ccccc3=O)cc2)cc1C(=O)NCc1nccc(OC)n1 [Example 10, 3-(methoxymethyl)-N-[(4-methoxypyrimidin-2-yl)methyl]-1-({4-[(2-oxopyridin-1-yl)methyl]phenyl}methyl)pyrazole-4-carboxamide]",IC50,Human plasma kallikrein,2.45 µM
same,IC50,Human KLK1,> 40 µM
same,IC50,Human FXIa,> 40 µM
same,IC50,Human Factor XIIa,> 40 µM
"COCc1nn(Cc2ccc(Cn3ccccc3=O)cc2)cc1C(=O)NCc1cc(OC)ncn1 [Example 4, 3-(methoxymethyl)-N-[(6-methoxypyrimidin-4-yl)methyl]-1-({4-[(2-oxopyridin-1-yl)methyl]phenyl}methyl)pyrazole-4-carboxamide]",IC50,Human plasma kallikrein,2.3 µM
same,IC50,Human KLK1,> 4 µM
same,IC50,Human FXIa,> 40 µM
same,IC50,Human Factor XIIa,> 4 µM
"COCc1nn(Cc2ccc(Cn3ccccc3=O)cc2)cc1C(=O)NCc1ncc(C)c(OC)c1C [Example 11, N-[(4-methoxy-3,5-dimethylpyridin-2-yl)methyl]-3-(methoxymethyl)-1-({4-[(2-oxopyridin-1-yl)methyl]phenyl}methyl)pyrazole-4-carboxamide]",IC50,Human plasma kallikrein,0.035 µM
same,IC50,Human KLK1,> 40 µM
same,IC50,Human FXIa,> 40 µM
same,IC50,Human Factor XIIa,> 40 µM
"COCc1nn(Cc2ccc(Cn3ccccc3=O)cc2)cc1C(=O)NCc1cc(OC)cc(OC)c1 [Reference Example A, N-(3,5-Dimethoxybenzyl)-3-(methoxymethyl)-1-(4-((2-oxopyridin-1(2H)-yl)methyl)benzyl)-1H-pyrazole-4-carboxamide, reference compound]",IC50,Human KLK1,> 10 µM
same,IC50,Human FXIa,> 40 µM
"COCc1nn(Cc2ccc(Cn3ccccc3=O)cc2)cc1C(=O)NCc1ncccc1C#N [Example 13, N-[(3-cyanopyridin-2-yl)methyl]-3-(methoxymethyl)-1-({4-[(2-oxopyridin-1-yl)methyl]phenyl}methyl)pyrazole-4-carboxamide]",IC50,Human plasma kallikrein,2.95 µM
same,IC50,Human KLK1,> 4 µM
same,IC50,Human FXIa,> 40 µM
same,IC50,Human Factor XIIa,> 4 µM
"COCc1nn(Cc2ccc(Cn3ccccc3=O)cc2)cc1C(=O)NCc1ncc(Cl)cc1C#N [Example 16, N-[(5-chloro-3-cyanopyridin-2-yl)methyl]-3-(methoxymethyl)-1-({4-[(2-oxopyridin-1-yl)methyl]phenyl}methyl)pyrazole-4-carboxamide]",IC50,Human plasma kallikrein,0.187 µM
same,IC50,Human KLK1,> 40 µM
same,IC50,Human FXIa,> 40 µM
same,IC50,Human Factor XIIa,> 40 µM
"COc1cccc(CNC(=O)c2cn(Cc3ccc(N4CCCC4)nc3)nc2C(F)(F)F)c1F [Reference Example G, 1-(6-Pyrrolidin-1-yl-pyridin-3-ylmethyl)-3-trifluoromethyl-1H-pyrazole-4-carboxylic acid 2-fluoro-3-methoxy-benzylamide, reference compound]",IC50,Human KLK1,> 10 µM
same,IC50,Human FXIa,> 40 µM
"COCc1nn(Cc2ccc(Cn3ccccc3=O)cc2)cc1C(=O)NCc1cc(OC)n(C)n1 [Example 31, N-[(5-methoxy-1-methylpyrazol-3-yl)methyl]-3-(methoxymethyl)-1-({4-[(2-oxopyridin-1-yl)methyl]phenyl}methyl)pyrazole-4-carboxamide]",IC50,Human plasma kallikrein,0.462 µM
same,IC50,Human KLK1,> 40 µM
same,IC50,Human FXIa,> 40 µM
same,IC50,Human Factor XIIa,> 40 µM
"COCc1nn(Cc2cnc3cc(Cl)ccc3c2)cc1C(=O)NCc1cccc(OC)c1F [Reference Example C, 1-(7-Chloro-quinolin-3-ylmethyl)-3-methoxymethyl-1H-pyrazole-4-carboxylic acid 2-fluoro-3-methoxy-benzylamide, reference compound]",IC50,Human KLK1,> 10 µM
same,IC50,Human FXIa,> 40 µM
"COCc1nn(Cc2ccc(Cn3ccccc3=O)cc2)cc1C(=O)NCc1nccc(OC)c1F [Reference Example D, 3-Methoxymethyl-1-[4-(2-oxo-2H-pyridin-1-ylmethyl)-benzyl]-1H-pyrazole-4-carboxylic acid (3-fluoro-4-methoxy-pyridin-2-ylmethyl)-amide, reference compound]",IC50,Human KLK1,> 40 µM
same,IC50,Human FXIa,> 40 µM
same,IC50,Human Factor XIIa,> 40 µM
